Data from patent US20120165325A1, “Stable forms of N-(2,6-Dimethyl-4-morpholin-4-yl-phenyl)-3,3-dimethyl-butyramide” (H. Lundbeck A/S, priority 2009, published 2012).
Blank lines part the entries; values can stand above or below the compound they belong to.

Experiments:
Male Wistar rats [1] = assay: Amphetamine challenge: antagonism of d-amphetamine induced hyperactivity; format: in vivo; conditions: rat; s.c. 30 min before d-amphetamine sulphate 0.5 mg/kg; motility over 2 hours; std. dev. in brackets
Procedure: Subjects. Male Wistar rats (Taconic, Denmark) weighing 170-240 g are used. The animals were housed under a 12-hr light/dark cycle under controlled conditions for regular in-door temperature (21±2° C.) and humidity (55±5%) with food and tap water available ad libitum. Eight rats were used at each dose level and in the parallel control group receiving the vehicle to the test compound plus d-amphetamine and the group receiving vehicle injections only.
Experimental procedure. The experiment was made in normal light conditions in an undisturbed room. The test substance was injected 30 min before s.c. before the injection of d-amphetamine sulphate (0.5 mg/kg). Immediately after injection of d-amphetamine, the rats were placed individually in the test cages that were placed in a U-frame, equipped with 4 infrared light sources and photocells. The light beams crossed the cage 4 cm above the cage floor. Recording of a motility count required interruption of adjacent light beams, thus avoiding counts induced by stationary movements of the rat. Motility (counts) was recorded for a period of 2 hours. The mean motility induced by vehicle (saline) treatment in the absence of d-amphetamine was used as baseline. The 100 percent effect of d-amphetamine was accordingly calculated to be total motility counts minus baseline. The response in groups receiving test compound was thus determined by the total motility counts minus baseline, expressed in percent of the similar result recorded in the parallel amphetamine control group. The percent responses were converted to percent inhibition from which ED50 values were calculated by means of log-probit analyses. In a parallel set of data, the potential sedative properties (motility inhibition) of the test compounds were evaluated using essentially the same procedure with the exception of not administering d-amphetamine-sulphate at the initiation of locomotor assessment.

Male NMRI mice [2] = assay: Amphetamine sensitisation: inhibition of the sensitised behavioural response to amphetamine; format: in vivo, mouse; conditions: amphetamine-pretreated mice, s.c. 30 min before D-amphetamine challenge 1.25 mg/kg s.c., 30 min test, S.D. in brackets
Procedure: Subjects. […] The animals were housed 6 mice pr cage in a 12-hr light/dark cycle under controlled conditions for regular in-door temperature (21±2° C.) and humidity (55±5%) with food and tap water available ad libitum.
Experimental procedure. […] 5×8 infrared light sources and photocells interspaced by 4 cm monitor the locomotor activity.
Administration of compounds.
Data analyses. […] A therapeutic index value can subsequently be calculated by dividing the first ED50 by the second.

Male NMRI mice [3] = assay: Forced swim test; format: in vivo, mouse; conditions: 30 min before test, last 3 min of 6 min swim, vehicle = 100
Procedure: (§1) Subjects. Male NMRI mice (Charles River) weighing 23-25 g were used. The mice were kept 8 mice pr cage in a 12-hr light/dark cycle under controlled conditions for regular in-door temperature (21±2° C.) and humidity (55±5%) with food and tap water available ad libitum. 8 mice were used pr experimental group.
Experimental procedure. The mice were placed in 2000 ml beaker containing 1200 ml of tempered water (25° C.) and left to swim for 6 min. The performance of the mice was video recorded, digitalized and analysed by means of a digital analysis system (Bioobserve). The time spent immobile for the last 3 min. of the test session was quantified for each mouse.
Treatment. 30 min. before the test, mice were treated s.c. with N-(2,6-dimethyl-4-morpholin-4-yl-phenyl)-3,3-dimethyl-butyramide or vehicle (10-%-2-OH-propyl-cyclodextrin, 10 ml/kg). In addition as positive control, imipramine-HCl (40 mg/kg) and a saline control (10 ml/kg) was included.
Analyses. The time spent immobile was statistically compared across the experimental groups against the relevant control group by means of one-way analysis of variance. A post-hoc test (Student-Newman-Keuls) was employed when appropriate. P-levels <0.05 were considered significant.

[4] = Intrinsic dissolution rate (37C); format: physicochemical
[5] = Solid form stability at 60° C. and 95% relative humidity; format: physicochemical; conditions: relative humidity of 95%
Male Wistar rats [6] = assay: Motility inhibition (potential sedative properties, without d-amphetamine); format: in vivo; conditions: rat, std. dev. in brackets
Description: Subjects. Male Wistar rats (Taconic, Denmark) weighing 170-240 g are used.
Experimental procedure. […] Recording of a motility count required interruption of adjacent light beams, thus avoiding counts induced by stationary movements of the rat.

Male NMRI mice [7] = assay: Inhibition of baseline motility in vehicle-pretreated, vehicle-challenged mice; format: in vivo, mouse; conditions: 30 min test
Procedure: as §1, with “weighing approx. 35” for “weighing 23-25”, “The animals” for “The mice”, “were housed 6” for “were kept 8”, “libitum. 12” for “libitum. 8”
Experimental procedure. All mice were pre-treated once daily for five days with either d-amphetamine sulphate (2.5 mg/kg s.c.) or saline (10 ml/kg). For the 17 days between the last day of pre-treatment and the test day, the animals were kept in their home cage receiving the standard care as described above. […] The recording of a motility counted requires interruption of adjacent light beams, thereby avoiding counts induced by stationary movements of the mice. […]
Data analyses. […] That is, the response in amphetamine-sensitized groups receiving test compound was thus determined as the sensitised response minus the baseline motility, expressed in percent of the similar result recorded in the sensitized amphetamine response group. […] Similarly, an ED50 for inhibiting baseline motility was calculated by expressed the motility response in vehicle-pretreated, vehicle-challenged, drug-treated animals relative to the baseline motility response. A therapeutic index value can subsequently be calculated by dividing the first ED50 by the second.

Compound: Cc1cc2c(s1)Nc1ccccc1N=C2N1CCN(C)CC1 [Olanzapine, reference compound]
- ED50 (Male Wistar rats [1]): 0.21 mg/kg
- ED50 (Male NMRI mice [2]; Mus musculus): 0.11 mg/kg
- Immobility in % (±S.D.) (Male NMRI mice [3]; dose 0.31 mg/kg): 96%
- Immobility in % (±S.D.) (Male NMRI mice [3]; dose 1.3 mg/kg): 95%

- Intrinsic dissolution rate (37C) ([4]; listed as α): 0.021 mg//cm^2/min
- Stability: solid form stable for ([5]; listed as α): Solid form stable for >90 days at 60 °C
Compound: Cc1cc(N2CCOCC2)cc(C)c1NC(=O)CC(C)(C)C [α form, N-(2,6-Dimethyl-4-morpholin-4-yl-phenyl)-3,3-dimethyl-butyramide, α form]

- Intrinsic dissolution rate (37C) ([4]; listed as β): 0.026 mg//cm^2/min
- Stability: solid form stable for ([5]; listed as β): Solid form stable for >90 days at 60 °C
Compound: Cc1cc(N2CCOCC2)cc(C)c1NC(=O)CC(C)(C)C [β form, N-(2,6-Dimethyl-4-morpholin-4-yl-phenyl)-3,3-dimethyl-butyramide, β form]

- Intrinsic dissolution rate (37C) ([4]; listed as γ): 0.036 mg//cm^2/min
- Stability: solid form stable for ([5]; listed as γ): Solid form stable for >14 days at 60 °C
Compound: Cc1cc(N2CCOCC2)cc(C)c1NC(=O)CC(C)(C)C [γ form, N-[2,6-Dimethyl-4-morpholin-4-yl-phenyl]-3,3-dimethyl-butyramide, γ form]

Compound: Lithium-chloride
- Amphetamine antagonism ED50 ± std. dev. (Male Wistar rats [1]): 12 (1.7) mg/kg
- Inhibition of amphetamine sensitised response. ED50 (±S.D.) (Male NMRI mice [2]): 34 (7.2) mg/kg
- Motility inhibition ED50 ± std. dev. (Male Wistar rats [6]): >40 mg/kg
- Inhibition of baseline motility. ED50 (±S.D.) (Male NMRI mice [7]): >>40 mg/kg
